The CheMixHub ionic liquid set
± gives the uncertainty stated by the source.

Assay: xn = mol fraction of the nth substance listed
Settings: 100 kPa

CCCCCCCCCCCCCCCC[N+](C)(C)C.[Br-] + O=C[C@H](O)[C@@H](O)[C@H](O)[C@H](O)CO + O
viscosity (298.15 K, x2 = 0, x1 = 7.21e-06): 0.896 ± 0.06 mPa·s
viscosity (298.15 K, x2 = 0, x1 = 1.442e-05): 0.898 ± 0.06 mPa·s
viscosity (298.15 K, x2 = 0, x1 = 2.162e-05): 0.9 ± 0.06 mPa·s
viscosity (298.15 K, x2 = 0.0008068, x1 = 7.2e-06): 0.918 ± 0.06 mPa·s
viscosity (298.15 K, x2 = 0.000976, x1 = 1.44e-05): 0.926 ± 0.06 mPa·s
viscosity (298.15 K, x2 = 0.001569, x1 = 7.2e-06): 0.939 ± 0.06 mPa·s
viscosity (298.15 K, x2 = 0.001577, x1 = 2.159e-05): 0.946 ± 0.06 mPa·s
viscosity (298.15 K, x2 = 0.001582, x1 = 1.439e-05): 0.943 ± 0.06 mPa·s
viscosity (298.15 K, x2 = 0.001962, x1 = 7.19e-06): 0.949 ± 0.06 mPa·s
viscosity (298.15 K, x2 = 0.001965, x1 = 2.158e-05): 0.957 ± 0.06 mPa·s
viscosity (298.15 K, x2 = 0.00197, x1 = 1.439e-05): 0.955 ± 0.06 mPa·s
viscosity (298.15 K, x2 = 0.002365, x1 = 2.157e-05): 0.968 ± 0.061 mPa·s
viscosity (298.15 K, x2 = 0.002661, x1 = 1.438e-05): 0.974 ± 0.061 mPa·s
viscosity (298.15 K, x2 = 0.002693, x1 = 2.157e-05): 0.978 ± 0.061 mPa·s
viscosity (298.15 K, x2 = 0.0027, x1 = 7.19e-06): 0.969 ± 0.061 mPa·s
viscosity (308.15 K, x2 = 0, x1 = 7.21e-06): 0.742 ± 0.06 mPa·s
viscosity (308.15 K, x2 = 0, x1 = 1.442e-05): 0.744 ± 0.06 mPa·s
viscosity (308.15 K, x2 = 0, x1 = 2.162e-05): 0.745 ± 0.06 mPa·s
viscosity (308.15 K, x2 = 0.0008068, x1 = 7.2e-06): 0.76 ± 0.06 mPa·s
viscosity (308.15 K, x2 = 0.0009851, x1 = 2.16e-05): 0.768 ± 0.06 mPa·s
viscosity (308.15 K, x2 = 0.001255, x1 = 2.16e-05): 0.774 ± 0.06 mPa·s
viscosity (308.15 K, x2 = 0.001314, x1 = 1.44e-05): 0.774 ± 0.06 mPa·s
viscosity (308.15 K, x2 = 0.001569, x1 = 7.2e-06): 0.777 ± 0.06 mPa·s
viscosity (308.15 K, x2 = 0.001577, x1 = 2.159e-05): 0.782 ± 0.06 mPa·s
viscosity (308.15 K, x2 = 0.001965, x1 = 2.158e-05): 0.791 ± 0.06 mPa·s
viscosity (308.15 K, x2 = 0.002321, x1 = 7.19e-06): 0.793 ± 0.06 mPa·s
viscosity (308.15 K, x2 = 0.00235, x1 = 1.438e-05): 0.798 ± 0.06 mPa·s
viscosity (308.15 K, x2 = 0.002365, x1 = 2.157e-05): 0.8 ± 0.06 mPa·s
viscosity (308.15 K, x2 = 0.002661, x1 = 1.438e-05): 0.805 ± 0.061 mPa·s
viscosity (308.15 K, x2 = 0.002693, x1 = 2.157e-05): 0.808 ± 0.061 mPa·s
viscosity (308.15 K, x2 = 0.0027, x1 = 7.19e-06): 0.802 ± 0.061 mPa·s
viscosity (318.15 K, x2 = 0, x1 = 7.21e-06): 0.617 ± 0.06 mPa·s
viscosity (318.15 K, x2 = 0, x1 = 1.442e-05): 0.617 ± 0.06 mPa·s
viscosity (318.15 K, x2 = 0, x1 = 2.162e-05): 0.617 ± 0.06 mPa·s
viscosity (318.15 K, x2 = 0.000976, x1 = 1.44e-05): 0.635 ± 0.06 mPa·s
viscosity (318.15 K, x2 = 0.0009851, x1 = 2.16e-05): 0.636 ± 0.06 mPa·s
viscosity (318.15 K, x2 = 0.00106, x1 = 7.2e-06): 0.636 ± 0.06 mPa·s
viscosity (318.15 K, x2 = 0.001255, x1 = 2.16e-05): 0.641 ± 0.06 mPa·s
viscosity (318.15 K, x2 = 0.001569, x1 = 7.2e-06): 0.645 ± 0.06 mPa·s
viscosity (318.15 K, x2 = 0.001577, x1 = 2.159e-05): 0.647 ± 0.06 mPa·s
viscosity (318.15 K, x2 = 0.001582, x1 = 1.439e-05): 0.647 ± 0.06 mPa·s
viscosity (318.15 K, x2 = 0.001965, x1 = 2.158e-05): 0.655 ± 0.06 mPa·s
viscosity (318.15 K, x2 = 0.00197, x1 = 1.439e-05): 0.654 ± 0.06 mPa·s
viscosity (318.15 K, x2 = 0.002321, x1 = 7.19e-06): 0.659 ± 0.06 mPa·s
viscosity (318.15 K, x2 = 0.002365, x1 = 2.157e-05): 0.662 ± 0.06 mPa·s
viscosity (318.15 K, x2 = 0.002661, x1 = 1.438e-05): 0.667 ± 0.06 mPa·s
viscosity (318.15 K, x2 = 0.002693, x1 = 2.157e-05): 0.669 ± 0.06 mPa·s
